Reference: ChEMBL document CHEMBL3865829 (Eur J Med Chem, 2016)

Tests used:
[1] = Antitumor activity against human A549 cells xenografted in BALB/c nude mouse assessed as tumor volume at 10 mg/kg, ig administered via oral gavage once daily for 14 consecutive days measured on day 18 (reference value: 3045.91 +/- 854.27 mm3); type: functional
[2] = Ratio of Cmax in Sprague-Dawley rat to IC50 for human A549 cells
[3] = Antitumor activity against human Bel7404 cells xenografted in BALB/c nude mouse assessed as tumor volume at 10 mg/kg, ig administered via oral gavage once daily for 14 consecutive days measured on day 3 (reference value: 176.17 +/- 57.63 mm3); type: functional, BEL-7404
[4] = system: Mus musculus; assay: Toxicity in nude BALB/c mouse xenografted with human A549 cells assessed as body weight at 10 mg/kg, ig administered via oral gavage once daily for 14 consecutive days measured on day 15 (reference value: 27.12 +/- 1.43 g); type: organism-based; conditions: in vivo
[5] = Antitumor activity against human Bel7404 cells xenografted in BALB/c nude mouse assessed as tumor volume at 10 mg/kg, ig administered via oral gavage once daily for 14 consecutive days measured on day 14 (reference value: 589.54 +/- 162.22 mm3); type: functional, BEL-7404
[6] = system: Mus musculus; assay: Toxicity in nude BALB/c mouse xenografted with human A549 cells assessed as body weight at 10 mg/kg, ig administered via oral gavage once daily for 14 consecutive days measured on day 1 (reference value: 24.38 +/- 0.76 g); type: organism-based; conditions: in vivo
[7] = Oral bioavailability in Sprague-Dawley rat at 20 mg/kg administered via gavage as single dose by LCMS analysis; type: ADME, organism-based; conditions: in vivo
[8] = Cytotoxicity against human A549 cells after 72 hrs by MTT assay; type: functional, cell-based; conditions: A549, 72 h
[9] = Cmax in Sprague-Dawley rat at 20 mg/kg administered via oral gavage as single dose by LCMS analysis; type: ADME, organism-based; design: dose 20 mg/kg, route oral; conditions: in vivo
[10] = system: A549; assay: Antitumor activity against human A549 cells xenografted in BALB/c nude mouse assessed as tumor growth inhibition administered ig via oral gavage once daily for 14 consecutive days measured on day 30; type: functional, cell-based
[11] = Time at which maximum plasma concentration stays above in vitro IC50 for human A549 cells in Sprague-Dawley rat at 20 mg/kg, po administered as single dose; type: ADME, organism-based; conditions: in vivo
[12] = system: Mus musculus; assay: Toxicity in nude BALB/c mouse xenografted with human A549 cells assessed as body weight at 10 mg/kg, ig administered via oral gavage once daily for 14 consecutive days measured on day 18 (reference value: 27.75 +/- 1.41 g); type: organism-based; conditions: in vivo
[13] = Antitumor activity against human Bel7404 cells xenografted in BALB/c nude mouse assessed as tumor volume at 10 mg/kg, ig administered via oral gavage once daily for 14 consecutive days measured on day 10 (reference value: 425.92 +/- 102.32 mm3); type: functional, BEL-7404
[14] = Antitumor activity against human Bel7404 cells xenografted in BALB/c nude mouse assessed as tumor volume at 10 mg/kg, ig administered via oral gavage once daily for 14 consecutive days measured on day 17 (reference value: 747.40 +/- 169.75 mm3); type: functional, BEL-7404
[15] = AUC (0 to infinity) in Sprague-Dawley rat at 20 mg/kg administered via oral gavage as single dose by LCMS analysis; type: ADME, organism-based; design: dose 20 mg/kg, route oral, time infinity; conditions: in vivo
[16] = Antitumor activity against human Bel7404 cells xenografted in BALB/c nude mouse assessed as tumor volume at 10 mg/kg, ig administered via oral gavage once daily for 14 consecutive days measured on day 7 (reference value: 284.68 +/- 74.36 mm3); type: functional, BEL-7404
[17] = Antitumor activity against human A549 cells xenografted in BALB/c nude mouse assessed as tumor volume at 10 mg/kg, ig administered via oral gavage once daily for 14 consecutive days measured on day 4 (reference value: 419.55 +/- 104.72 mm3); type: functional
[18] = cells; conditions: Homo sapiens, HCT-116, 72 h
[19] = Potency index, ratio of paclitaxel GI50 to compound GI50 against human NCI60 cells; type: functional
[20] = system: Mus musculus; assay: Toxicity in nude BALB/c mouse xenografted with human A549 cells assessed as body weight at 10 mg/kg, ig administered via oral gavage once daily for 14 consecutive days measured on day 11 (reference value: 26.11 +/- 1.06 g); type: organism-based; conditions: in vivo
[21] = system: A549; assay: Inhibition of mTORC2 in human A549 cells assessed as reduction in AKT phosphorylation at serine473 residues after 30 mins by Western blot analysis; type: cell-based
[22] = Potency index, ratio of camptothecin GI50 to compound GI50 against human NCI60 cells; type: functional
[23] = Antitumor activity against human A549 cells xenografted in BALB/c nude mouse assessed as tumor growth inhibition at 10 mg/kg, ig administered via oral gavage once daily for 14 consecutive days measured on day 30 relative to control; type: functional; conditions: 720 h, read-out: TGI
[24] = Antitumor activity against human A549 cells xenografted in BALB/c nude mouse assessed as tumor volume at 10 mg/kg, ig administered via oral gavage once daily for 14 consecutive days measured on day 8 (reference value: 840.07 +/- 205.19 mm3); type: functional
[25] = Antitumor activity against human A549 cells xenografted in BALB/c nude mouse assessed as tumor volume at 10 mg/kg, ig administered via oral gavage once daily for 14 consecutive days measured on day 1 (reference value: 156.87 +/- 22.32 mm3); type: functional
[26] = AUC (0 to infinity) in Sprague-Dawley rat at 2 mg/kg, iv by LCMS analysis; type: ADME, organism-based; design: dose 2 mg/kg, time infinity, route intravenous; conditions: in vivo
[27] = Antitumor activity against human Bel7404 cells xenografted in BALB/c nude mouse assessed as tumor growth inhibition at 10 mg/kg, ig administered via oral gavage once daily for 14 consecutive days measured on day 29; type: functional; conditions: BEL-7404, po, 696 h, read-out: TGI
[28] = system: A549; assay: Inhibition of PI3K in human A549 cells assessed as reduction in AKT phosphorylation at threonine308 residues after 30 mins by Western blot analysis; type: cell-based
[29] = Antitumor activity against human Bel7404 cells xenografted in BALB/c nude mouse assessed as tumor volume at 10 mg/kg, ig administered via oral gavage once daily for 14 consecutive days measured on day 1 (reference value: 101.62 +/- 26.48 mm3); type: functional, BEL-7404
[30] = Cmax in Sprague-Dawley rat at 2 mg/kg, iv by LCMS analysis; type: ADME, organism-based; design: dose 2 mg/kg, route intravenous; conditions: in vivo
[31] = Half life in Sprague-Dawley rat at 20 mg/kg administered via oral gavage as single dose by LCMS analysis; type: ADME, organism-based; conditions: in vivo
[32] = system: Mus musculus; assay: Toxicity in nude BALB/c mouse xenografted with human A549 cells assessed as mortality at 10 mg/kg, ig administered via oral gavage once daily for 14 consecutive days measured on day 30; type: organism-based; conditions: in vivo
[33] = Antitumor activity against human A549 cells xenografted in BALB/c nude mouse assessed as tumor volume at 10 mg/kg, ig administered via oral gavage once daily for 14 consecutive days measured on day 15 (reference value: 2071.51 +/- 682.84 mm3); type: functional
[34] = Half life in rat microsomes; type: ADME, Microsome
[35] = system: Mus musculus; assay: Toxicity in nude BALB/c mouse xenografted with human A549 cells assessed as body weight at 10 mg/kg, ig administered via oral gavage once daily for 14 consecutive days measured on day 8 (reference value: 25.66 +/- 1.04 g); type: organism-based; conditions: in vivo
[36] = system: Mus musculus; assay: Toxicity in nude BALB/c mouse xenografted with human A549 cells assessed as body weight at 10 mg/kg, ig administered via oral gavage once daily for 14 consecutive days measured on day 4 (reference value: 24.77 +/- 0.93 g); type: organism-based; conditions: in vivo
[37] = Antitumor activity against human A549 cells xenografted in BALB/c nude mouse assessed as tumor volume at 10 mg/kg, ig administered via oral gavage once daily for 14 consecutive days measured on day 11 (reference value: 1327.66 +/- 404.92 mm3); type: functional

COc1ncc(-c2ccc3nccc(-c4ccc(CN(C)C)cc4)c3c2)cc1NS(=O)(=O)c1ccc(F)cc1F
Activity [1]: 748.11 mm3
Ratio [2]: >2800
Activity [3]: 123.3 mm3
Activity [4]: 23.42 g
Activity [5]: 187.5 mm3
Activity [6]: 25.13 g
bioavailability [7]: 95%
IC50 [8]: 4.4 nM
Cmax [9]: 7120 ng/mL
TGI [10]: Dose-dependent effect
Time [11]: 0.5 h
Activity [12]: 23.92 g
Activity [13]: 152.31 mm3
Activity [14]: 220.21 mm3
AUC(0-inf) [15]: 35600 ng·h/mL
Activity [16]: 135.38 mm3
Activity [17]: 224.6 mm3
IC50 [18]: 3 nM
RatioGI50 [19]: 2
Activity [20]: 23.77 g
inhibition [21]: Dose-dependent effect
RatioGI50 [22]: 2
inhibition in vivo at 10 mg/kg [23]: 73.5%
Activity [24]: 330.06 mm3
Activity [25]: 149.23 mm3
AUC(0-inf) [26]: 3740 ng·h/mL
inhibition in vivo at 10 mg/kg [27]: 70.6%
inhibition [28]: Dose-dependent effect
Activity [29]: 90.39 mm3
Cmax [30]: 1000 ng/mL
half-life [31]: 4.41 h
Activity [32]: Non-Toxic
Activity [33]: 536.2 mm3
half-life [34]: 0.767 h
Activity [35]: 24.23 g
Activity [36]: 24.17 g
Activity [37]: 432.38 mm3
